# According to article PMC2816223, “Designed Coiled-Coil Peptides Inhibit the Type Three Secretion System of Enteropathogenic Escherichia coli” (PLoS ONE, 2010):
# Ends that are not written are not given here.
# What was measured:
# [1] = test system: TTSS-mediated lysis of sheep RBC by EPEC E2348/69; details: for inhibition of TTSS-mediated RBC lysis caused by E2348/69: peptide 0.56 mg/ml, bacteria preincubated with peptide 1 h, then 5% sheep RBC 3 h at 37°C, released hemoglobin OD 543 nm, relative to EPEC alone (100%), triplicate
# Procedure: Twelve-well plates containing peptides and bacteria were incubated for 1 h to allow their interaction. A 5% suspension of RBC was then added, plates were incubated for another 3 h, and supernatants were monitored for released hemoglobin.
# K12 means the hemolysis caused by the E. coli non-pathogenic strain. […] Each assay was done by triplicate.
# The plates were incubated for 1 h under a 5% CO2 atmosphere to allow the interaction between peptides and bacteria. In turn, red blood cells (RBCs) were separated by centrifugation from fresh defibrinated sheep blood, which was obtained by jugular vein punction, washed three times with 10 mM PBS (pH 7.4) and resuspended at 5% in PBS. Then, 2 ml of the 5% suspension of RBC in PBS was added to the cultures in the plates and incubated for 3 h at 37°C under a 5% CO2 atmosphere. The suspension was removed from the plates and centrifuged at 12,000×g for 1 min. Supernatants were monitored for the presence of released hemoglobin by measuring the OD at 543 nm.
# [2] = test system: EspA, EspB, EspD and Tir secretion by EPEC E2348/69; test: In vitro TTSS protein secretion, Western blot of culture supernatants and bacterial lysates; type: cell-based, enteropathogenic E. coli (EPEC) E2348/69; details: EPEC incubated 4 h in DMEM with peptide 0.56 mg/ml; for secretion of EspD, Western blot: protein detected in pellet of lysed bacteria
# Procedure: EPEC E2348/69 bacterial cultures were incubated in the presence of CoilA or CoilB peptides and concentrated supernatants and bacterial extracts were analyzed by Western blotting using specific antisera directed to EspA, EspB, EspD or Tir. The same amount of cell monolayer was loaded in each lane. pH represents a mock control to rule out the biological influence of alkaline pH used to dissolve peptides. PBS at alkaline pH was used in volumes identical to those in which peptides were added to cultures.
# In order to determine the effect of syntethic peptides in the production and excretion of TTSS-proteins by EPEC, cellular and supernatants culture extracts of peptide-treated bacteria were subjected to western blot analysis with specific antisera. The E2348/69 strain grown overnight at 37°C in LB was diluted 1∶100 into 2 ml of DMEM containing CoilA or CoilB peptides at a concentration of 0.56 mg/ml, respectively, and cultured for another 4 h in the presence of 5% CO2. After collecting by centrifugation, bacteria were suspended in 2X SDS sample buffer and boiled for 5 min. The proteins present in culture supernatants were precipitated by the addition of trichloroacetic acid at 20% (wt/vol) and incubated overnight at 4°C. The protein precipitates were then collected by centrifugation at 20,000×g for 25 min, washed twice with 200 µl of ice-cold acetone and resuspended in 20 µl Tris-HCl 10 mM pH 8.8. Whole-cell extracts and culture supernatants were then analyzed by Western blotting using polyclonal rabbit antibodies against EspA, EspB, EspD and Tir recombinant proteins as described by Vilte et al. Primary antibodies were detected with horseradish peroxidase-conjugated goat anti-rabbit IgG (Sigma Chemical Co., St. Louis, MO) diluted 1∶10,000.
# [3] = test system: EPEC E2348/69 adhering to HEp-2 cells; test: Fluorescent actin staining (FAS), A/E lesion / pedestal formation in HEp-2 cells; type: cell-based, enteropathogenic E. coli (EPEC) E2348/69; details: peptide 0.56 mg/ml preincubated 1 h with EPEC, MOI 7, 2 h infection, 100 cells examined; EPEC without peptides 80%
# Text: Since CoilA, CoilB and CoilD were able to inhibit the hemolysis caused by EPEC, which could involve translocator proteins at cell membrane level, we decided to explore whether peptides were also able to block effector proteins delivery and thus prevent the formation of A/E lesions in epithelial cells. Thus, peptides interfering in actin polymerization beneath E2348/69 strain adhering to HEp-2 cells were visualized by FAS (fluorescent actin staining). As expected, EPEC bacteria were able to induce actin polymerization for pedestal formation in almost all the cells (Fig. 2A), the A/E lesions were not seen in uninfected cells (Fig. 2B). CoilA or CoilB preincubation with EPEC caused a decrease in pedestal formation in epithelial cells, showing different effectiveness (Fig. 2C and Fig. 2D).
# Figure 2 Coiled-coil peptides inhibit A/E lesion formation caused by EPEC. HEp-2 cells were incubated with EPEC E2348/69 either with or without coiled-coil peptides. […] Incubation of HEp-2 cells with the wild type EPEC E2348/69 strain without peptides (EPEC WT); preincubated with CoilA (EPEC+CoilA), or CoilB (EPEC+CoilB) peptide and uninfected cells. The corresponding percentage of HEp-2 cells carrying pedestals, obtained by examining 100 cells, is shown in panel E. EPEC pH represents a mock control to rule out the biological influence of alkaline pH used to dissolve peptides; PBS at alkaline pH was used in volumes identical to those in which peptides were added to HEp-2 cells.
# HEp-2 cells (5×10^4) were seeded in eight well chamber slides (NUNC, Lab-Tek, USA) and incubated at 37°C under a 5% CO2 atmosphere up to 70–90% confluence. Overnight LB culture of the EPEC E2348/69 strain was diluted 1∶20 into 3 ml of DMEM and cultured for 1 h. CoilA, CoilB or CoilD peptides were then added to the culture at a concentration of 0.56 mg/ml and allowed to interact with the bacteria for 1 h at 37°C under a 5% CO2 atmosphere. […] The cells were observed under fluorescence microscopy with a confocal laser microscope (Leica TC SP2).
# [4] = test system: EspA and Tir associated to HEp-2 cells infected with EPEC E2348/69; test: Western blot of EPEC-secreted proteins associated to HEp-2 cells; type: cell-based, enteropathogenic E. coli (EPEC) E2348/69; details: HEp-2 cells treated 2 h with EPEC preincubated with peptide, washed, lysed
# Procedure: To further determine the effect of CoilA and CoilB on EspA polymerization and Tir translocation were also examined by Western blotting. For that, HEp-2 cells were treated for 2 h with either EPEC alone or preincubated with each of the peptides and exhaustively washed. Cell extracts were prepared and the contents of EspA and Tir (Fig. 4) analyzed by Western blot using specific antibodies. […] The effective amount of EspA and Tir associated per cell may be even higher in non-treated (without peptides) cell cultures because it could be underestimated as some HEp-2 cells are detached from the surface upon infection. The pH buffering solution used to dilute CoilA and CoilB peptides had no effect and the results were similar to the positive control (Fig. 4).
# Figure 4 CoilA and CoilB peptides block EspA polymerization and Tir translocation. Cell monolayers were infected with bacteria pretreated with peptides, washed, and lysed for Western blot detection of EspA and Tir proteins with specific rabbit antisera. pH represents a mock control to rule out the biological influence of alkaline pH used to dissolve peptides; PBS at alkaline pH was used in a volume identical to those in which peptides were added to HEp-2 cells.
# (§1) HEp-2 monolayers were inoculated with bacteria pretreated with CoilA or CoilB peptides as described for fluorescent actin staining. After infection, the supernatant was removed from the plates and serial dilutions were cultured overnight at 37°C on LB agar plates to determine the viability of bacteria. In turn, the monolayers were resuspended in 40 µl of lysis buffer (1% Triton X-100) and protease inhibitor mix (Complete™ protease inhibitors, Roche). This material was subjected to Western blotting as mentioned above.
# [5] = test system: EspA filaments on EPEC E2348/69; test: Immunogold labeling and TEM of EspA filaments; type: cell-based, enteropathogenic E. coli (EPEC) E2348/69; details: EPEC incubated 4 h with peptide 0.56 mg/ml, fifty filaments, average with standard deviation, EPEC alone 700±150 nm
# Procedure: Since coil peptides are able to inhibit the TTSS by blocking EspA polymerization, we expected a decrement in EspA filaments on the bacterial cell surface upon incubation with coil peptides.
# Figure 6 CoilA peptide blocks the formation of EspA filaments. Immunogold EM of EspA filaments on EPEC cultures incubated either with or without CoilA peptide. After incubation of bacterial samples with specific rabbit anti-EspA serum, the samples were observed by TEM. EPEC alone, without peptides (A, C) and EPEC incubated with CoilA (B, D). Bars, 200 nm (A, B), or 100 nm (C, D). Yellow box frames show EspA filaments.
# EPEC E2348/69 strain was grown in LB overnight at 37°C without shaking and diluted 1∶100 into DMEM with 0.56 mg/ml of either CoilA or CoilB, in 24-well plates. The plates were incubated for 4 h under a 5% CO2 atmosphere. A 50 µl droplet of bacterial culture was applied to nickel EM grids (mesh 200) coated with 0.25% Formvar resin (Structure Probe, Inc., SPI supplies, PA, USA) for 2 min. Cells were immediately fixed face down for 15 min with 0.1% buffered glutaraldehyde in PBS (pH 7.3). The grids were washed by transfer across 6 drops of PBS and blocked in PBS containing 0.2% bovine serum albumin for 30 min at room temperature. […] Fifty EspA filaments were identified and the size was measured the length is given as an average with a standard deviation.
# [6] = test system: EspA polymerization and Tir translocation by EPEC E2348/69; test: Immunofluorescence of EspA and Tir on infected HEp-2 cells (confocal microscopy); type: cell-based, enteropathogenic E. coli (EPEC) E2348/69; details: bacteria preincubated with peptide 0.56 mg/ml
# Procedure: (§2) For that, HEp-2 cells were treated with EPEC preincubated either with or without CoilA or CoilB, and EspA and Tir were then visualized using specific antibodies and confocal microscopy.
# [7] = test system: EPEC adherence to HEp-2 cells; test: Non-adherent bacteria in supernatant of infected HEp-2 cells, HEp-2 detaching; type: cell-based, enteropathogenic E. coli (EPEC) E2348/69; details: data not shown; for non-adherent bacteria in the supernatant of HEp-2 cells vs EPEC without peptides: EPEC preincubated with peptide; for HEp-2 detaching activity (cytopathic effect) by EPEC: bacteria preincubated with peptide
# Procedure: as §2, §1
# [8] = Solubilization of peptides in PBS pH 10.0 / precipitation; type: physicochemical
# Procedure: CoilA, CoilB, CoilC, CoilD and PepTir peptides were synthesized commercially (Genbiotech, Buenos Aires). Peptides were solubilized with PBS (pH 10.0). […] EPEC E2348/69 [42] was kindly provided by Marta Rivas, ANLIS-Instituto Nacional de Microbiología Dr. Carlos G. Malbrán, Buenos Aires. […] Bacteria were grown in Luria Bertani broth (LB) or Dulbecco's modified Eagle medium (DMEM) lacking phenol red (Gibco-BRL), without antibiotics and bovine fetal serum at 37°C without shaking.
Sequence,inhibition of TTSS-mediated RBC lysis caused by E2348/69 [1],"secretion of EspB to the culture supernatant, Western blot [2]","secretion of Tir in vitro, Western blot [2]","secretion of EspD, Western blot [2]",HEp-2 cells showing pedestals [3],"Tir in the cells, Western blot [4]","amount of EspA associated to the cells and attached bacteria (incl. EspA polymers), Western blot [4]",EspA filament length [5],"hemolysis at reduced peptide concentration ([1]; peptide 0.15 mg/ml, preincubated with EPEC E2348/69, sheep RBC, relative to EPEC alone)",secreted EspA (immunofluorescence) ([6]; anti-EspA sera),translocated Tir (immunofluorescence) ([6]; anti-Tir sera),non-adherent bacteria in the supernatant of HEp-2 cells vs EPEC without peptides [7],HEp-2 detaching activity (cytopathic effect) by EPEC [7],tendency to precipitate / aggregation ([8]; observed in preparation for electron micrographs),solubility in PBS (pH 10.0) ([8]; peptides solubilized with PBS pH 10.0)
KVNIDENGNAI [PepTir],did not show inhibitory activity,–,–,–,–,–,–,–,–,–,–,–,–,–,–
LSDSVPELLNSTDLV [CoilC],did not show inhibitory activity,–,–,–,–,–,–,–,–,–,–,–,–,–,–
LTTTVNNSQLEIQQM [CoilA],around 95%,not clearly observed,lightly decreased,affected,20%,significant decrease,drastically decreased,about 250±50 nm,50%,drastic decrease,drastic decrease,7 fold,absent,–,–
MSNTLNLLTSARSDM [CoilB],around 95%,blocked the secretion of EspB,lightly decreased,affected,2%,significant decrease,drastically decreased,–,–,–,–,40 fold,absent,tendency to precipitate forming clumps,not completely soluble
VNDPEKMLELQFAVQ [CoilD],25%,–,–,–,unable to inhibit pedestal formation,–,–,–,–,–,–,–,–,–,–
